Where two headings read alike, the source gives them in different places. Each block holds one molecule with its values, some of them ahead of it.
Assays:
[1] = Langmuir isotherm, quartz crystal microbalance with dissipation (QCM-D); type: binding
Procedure: Stainless Steel Quartz Crystals (Q-Sense, QSX 304) were cleaned with a UV/Ozone treatment (Bioforce, UV […], Model No. […] The crystals were then immersed in a 2% sodium dodecyl sulfate (SDS) (MPI, Product No. 811036) in dH2O solution for 5 minutes, washed thoroughly with dH2O, N2 dried, and UV/Ozone treated for an additional 10 minutes. Surface Characterization: The QCM-D measurements (Q-Sense E4) were made with a solution flow rate of 100 μL per minute. The experiment was temperature controlled at 25° C. In the experiments, four samples were tested at one time using the QCM-D. Each experiment included running PBS for approximately 10 minutes to establish a stable baseline. The peptide solutions were then added at various concentrations until the change in frequency was 2 Hz per 30 minutes or less. The final step was to wash with PBS for 30 minutes or until the change in frequency was 2 Hz per 30 minutes or less. For analysis purposes (Sauerbrey model, Q-Tools), generally the third overtone was used from each sample.

[2] = on the order of; cited from earlier work
[3] = Procedure: A blank solution with PBS only was also prepared.
8 mm Liberte WH stents were placed in the wells of a 48-well polystyrene plate and 240 μl of each peptide concentration (including the blank) was then added to each well. The plates were then incubated for at least 1 hr at room temperature (RT) with gentle shaking (100 rpm) to allow for binding to occur. Excess peptide solution was removed and discard using a micropipette.
The stents were then washed 3 times with 1.5 ml PBS-Tween, with approximately 30 sec of shaking at 150 rpm between washes. 1.5 ml of 1% bovine serum albumin (BSA) in PBS (blocking solution) was then added to each stent and incubated for 1 hr at RT with gentle shaking (100 rpm) to allow for blocking to occur. After 1 hr, excess blocking solution was removed and discarded with a micropipette. The stent was then washed 3 times with 1.5 ml PBS-Tween using the wash method described above.
300 μl of Streptavidin-AP (alkaline phosphatase) solution was added to each stent at 1/1000 in TBS+1% BSA and incubated for 30 min at room temperature with gentle shaking (100 rpm). Excess Streptavidin solution was then removed and discarded. The stents were then washed 2 times with 1.5 ml PBS-Tween and then transferred to a set of new wells on the same plate using tweezers. Once the stents were moved, they were then washed once more with 1.5 ml PBS-Tween. 300 μl of the chromogen p-nitrophenyl phosphate (PNPP) was added to each stent in the 48 well plate. The plate was then placed on the shaker platform and incubated for 5 minutes at 100 rpm to allow color development to occur. 10 μl of sodium hydroxide (NaOH) was then added to the wells of a 96 well tissue culture plate. To stop the color development, 100 μl of the solution in each stent containing well was transferred to a well containing NaOH in the 96 well plate.
Optical density (OD) was determined by reading the 96 well plate in a plate reader (Spectramax Plus, Molecular Devices) at 405 nm in endpoint mode. The measured OD for the blank was subtracted from the ODs for all other solutions. The resulting ODs were plotted (y-axis) vs. concentration (μM) (log x-axis).
The OD at 5 min (405 nm) was measured at 1 hr, 4 hr and 24 hrs as described above.
The OD at 5 min (405 nm) was measured and the EC50 was determined as described above.

[4] = tested on: human coronary artery endothelial cells (HCAEC); test: HCAEC migration on coated stainless steel strips; type: cell-based; details: strips pre-coated with 10 μM peptide; 48 hours; uncoated stainless steel normalized to 1; p<0.01
Excerpt: Migration and proliferation of endothelial cells on biomaterials can impact the rates of reendothelization and angiogenesis, which can be important during the development and success of implantable medical devices. In this experiment, the effect of a surface-binding cell adhesion polypeptide on the motility of human coronary artery endothelial cells (HCAEC) on a stainless steel substrate was examined in vitro. The surface-binding cell adhesion polypeptide used in this example included DOPA as a surface binding moiety, a (ALA-Aib)3 linker, and the recognition sequence for laminin receptors (YIGSR) as the cell adhesion polypeptide [(DOPA)2-(ALA-Aib)3-YIGSR-OH, hereinafter PEPTIDE-1] (synthesized at the MGH Peptide/Protein Core Facility, Harvard Medical School, Boston, Mass.).
Human coronary artery endothelial cells (HCAEC, available from Cell Applications, Inc., San Diego, Calif.) were used in this study. The substrates were sterile stainless steel strips [3.5″×0.308″×0.031″] or sterile stainless steel strips coated with PEPTIDE-1.
Collagen gels were prepared using the following protocol: One 10 mg vial of high concentration (HC) Type I collagen (Rat tail, from BD Biosciences, San Jose, Calif.) was diluted with distilled sterile H2O to a final volume of 38 ml and mixed thoroughly without introducing bubbles (by pipetting up and down). […]

- EC50 ([1]; QCM-D, 25° C.): 280 nM
- Kd ([1]; QCM-D, 25° C., Langmuir isotherm fit): 260 nM
Molecule: (Dopa)2-(Ala-Aib)3-RIGSY-OH [PEPTIDE-3]

Molecule: N[C@@H](Cc1ccc(O)c(O)c1)C(=O)O [DOPA, 3,4 dihydroxyphenylalanine]
- binding constant [2]: ~10^16

- EC50 ([1]; QCM-D, 25° C.): ≥ 100000 nM
Molecule: bovine serum albumin [BSA, reference compound]

Molecule: (DOPA)2-(ALA-Aib)3-RIGSY-(Biotin)-OH [PEPTIDE-2]
- affinity for stainless steel in comparison to BSA ([1]; greater affinity than non-specific protein BSA): approx. 3 orders of magnitude
- EC50 ([3]; incubation time study, 1 hr): 310 nM
- EC50 ([3]; incubation time study, 4 hr): 300 nM
- EC50 ([3]; incubation time study, 24 hr): 270 nM
- EC50 ([3]; read-out: half-maximal concentration (EC50), concentration range study, coating 1 hour at room temperature): ~370 nM

Molecule: (DOPA)2-(ALA-Aib)3-YIGSR-OH [PEPTIDE-1]
- HCAEC migration compared to stainless steel alone [4]: 1.7 fold
